# Experimental data taken from patent publication US20250382305A1 (PTC THERAPEUTICS, INC., priority 2022, published 2025).
# What was measured:
# [1] = test system: ATXN3 pre-mRNA; assay: RT-qPCR Assay to Quantify Exon 4 Skipping in ATXN3 pre-mRNA in Cells; assay type: cell-based; settings: percent exon 4 skipping in ATXN3 pre-mRNA, RT-qPCR of cell lysates; average IC50
# Method in brief: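 IC50 derives from a dose-response fit of percent exon 4 skipping, quantified by RT-qPCR on crude lysates. Compounds tested as 7-point 3.16-fold dilutions in duplicate; cells (10,000/well) were exposed for 24 h at 37 °C before lysis.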
# [2] = test system: Total ATXN3 (tATXN3) protein; assay: Endogenous Total ATXN3 (tATXN3) Protein Assay (MSD immunoassay of cell lysates); assay type: cell-based; settings: average IC50, total ATXN3 protein in cell lysate after 48 h with compound (Table 1)
# Method in brief: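 By electrochemiluminescent MSD sandwich immunoassay (mouse monoclonal capture, rabbit monoclonal and SULFO-TAG anti-rabbit detection), endogenous ATXN3 was quantified in lysates of cells treated 48 h at 37° C at 10,000 cells/well. Treatment used a 7-point 3.16-fold duplicate dilution series, with average IC50 grouped into star categories.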
molecule,measurement,setting,value
"(1R,5S,6R)-6-amino-5-(3-bromo-5-chloro-7-((thiophen-2-ylmethyl)amino)thieno[3,2-b]pyridin-2-yl)cyclohex-2-en-1-ol and (1S,5R,6S)-6-amino-5-(3-bromo-5-chloro-7-((thiophen-2-ylmethyl)amino)thieno[3,2-b]pyridin-2-yl)cyclohex-2-en-1-ol [Compound 153]",IC50,[1],≤ 30 nM
same,IC50,[2],≤ 30 nM
"Cc1c([C@@H]2OCCC[C@H]2N)sc2c(NCc3cccs3)cc(Cl)nc12 (single isomer, unassigned) [Compound 44, 2-((2R,3R)-3-aminotetrahydro-2H-pyran-2-yl)-5-chloro-3-methyl-N-(thiophen-2-ylmethyl)thieno[3,2-b]pyridin-7-amine or 2-((2S,3S)-3-aminotetrahydro-2H-pyran-2-yl)-5-chloro-3-methyl-N-(thiophen-2-ylmethyl)thieno[3,2-b]pyridin-7-amine]",IC50,[1],> 1000 nM
same,IC50,[2],> 1000 nM
"N[C@H]1CC=CC[C@@H]1c1c(I)c2nc(Cl)nc(NCc3ccco3)c2n1C(F)F [Compound 276, 6-((1S,6S)-6-aminocyclohex-3-en-1-yl)-2-chloro-5-(difluoromethyl)-N-(furan-2-ylmethyl)-7-iodo-5H-pyrrolo[3,2-d]pyrimidin-4-amine]",IC50,[1],30 to 300 nM
same,IC50,[2],30 to 300 nM
"2-((3R,4S)-3-aminotetrahydro-2H-pyran-4-yl)-5-chloro-N-(thiophen-2-ylmethyl)-3-vinylthieno[3,2-b]pyridin-7-amine and 2-((3S,4R)-3-aminotetrahydro-2H-pyran-4-yl)-5-chloro-N-(thiophen-2-ylmethyl)-3-vinylthieno[3,2-b]pyridin-7-amine [Compound 350]",IC50,[1],30 to 300 nM
same,IC50,[2],30 to 300 nM
"N[C@@H]1CCCC[C@@H]1c1sc2c(NCc3cccs3)cc(Cl)nc2c1Br [Compound 52, 2-((1S,2R)-2-aminocyclohexyl)-3-bromo-5-chloro-N-(thiophen-2-ylmethyl)thieno[3,2-b]pyridin-7-amine]",IC50,[1],> 1000 nM
same,IC50,[2],> 1000 nM
"Cc1c([C@@H]2CCCC[C@H]2N)sc2c(NCc3ccco3)nc(Cl)nc12 [Compound 59, 6-((1R,2R)-2-aminocyclohexyl)-2-chloro-N-(furan-2-ylmethyl)-7-methylthieno[3,2-d]pyrimidin-4-amine]",IC50,[1],300 to 1000 nM
same,IC50,[2],> 1000 nM
"N[C@@H]1CC=CC[C@H]1c1sc2c(NCc3ccco3)nc(Cl)nc2c1Cl [Compound 437, 6-((1R,6R)-6-aminocyclohex-3-en-1-yl)-2,7-dichloro-N-(furan-2-ylmethyl)thieno[3,2-d]pyrimidin-4-amine]",IC50,[1],≤ 30 nM
same,IC50,[2],≤ 30 nM
"Cc1c([C@H]2CCCC[C@@H]2N)sc2c(NCc3ccccc3)cc(Cl)nc12 [Compound 280, 2-((1S,2S)-2-aminocyclohexyl)-N-benzyl-5-chloro-3-methylthieno[3,2-b]pyridin-7-amine]",IC50,[1],30 to 300 nM
same,IC50,[2],30 to 300 nM
"N[C@H]1CCCC[C@@H]1c1sc2c(NCc3ccco3)cc(Cl)nc2c1Cl [Compound 173, 2-((1S,2S)-2-aminocyclohexyl)-3,5-dichloro-N-(furan-2-ylmethyl)thieno[3,2-b]pyridin-7-amine]",IC50,[1],≤ 30 nM
same,IC50,[2],≤ 30 nM
"Cc1c([C@@H]2OCCC[C@H]2N)sc2c(NCc3ccco3)nc(Cl)nc12 [Compound 61, 6-((2R,3R)-3-aminotetrahydro-2H-pyran-2-yl)-2-chloro-N-(furan-2-ylmethyl)-7-methylthieno[3,2-d]pyrimidin-4-amine]",IC50,[1],> 1000 nM
same,IC50,[2],> 1000 nM
"[2H]C1=C([2H])C([2H])([2H])[C@H](c2sc3c(NCc4ccco4)nc(Cl)nc3c2C)[C@@H](N)C1([2H])[2H] [Compound 187, 6-((1S,6S)-6-aminocyclohex-3-en-1-yl-2,2,3,4,5,5-d6)-2-chloro-N-(furan-2-ylmethyl)-7-methylthieno[3,2-d]pyrimidin-4-amine]",IC50,[1],≤ 30 nM
same,IC50,[2],≤ 30 nM
"N[C@@H]1CCC[C@@H]1c1cc2nc(Cl)cc(NCc3cccs3)c2s1 [Compound 9, 2-((1S,2R)-2-aminocyclopentyl)-5-chloro-N-(thiophen-2-ylmethyl)thieno[3,2-b]pyridin-7-amine]",IC50,[1],300 to 1000 nM
same,IC50,[2],> 1000 nM
"Cc1c([C@@H]2CCC[C@H](F)[C@H]2N)sc2c(NCc3cccs3)cc(Cl)nc12.Cc1c([C@H]2CCC[C@@H](F)[C@@H]2N)sc2c(NCc3cccs3)cc(Cl)nc12 (mixture of isomers) [Compound 342, 2-((1R,2S,3S)-2-amino-3-fluorocyclohexyl)-5-chloro-3-methyl-N-(thiophen-2-ylmethyl)thieno[3,2-b]pyridin-7-amine and 2-((1S,2R,3R)-2-amino-3-fluorocyclohexyl)-5-chloro-3-methyl-N-(thiophen-2-ylmethyl)thieno[3,2-b]pyridin-7-amine]",IC50,[1],30 to 300 nM
same,IC50,[2],30 to 300 nM
"N[C@H]1CCCC[C@@H]1c1sc2c(NCc3ccccc3)nc(Cl)nc2c1Br [Compound 65, 6-[(1S,2S)-2-aminocyclohexyl]-N-benzyl-7-bromo-2-chloro-thieno[3,2-d]pyrimidin-4-amine]",IC50,[1],≤ 30 nM
same,IC50,[2],≤ 30 nM
N[C@H]1CCCC[C@@H]1c1sc2c(NCc3cccs3)cc(Cl)nc2c1-c1ccccc1 [Compound 129],IC50,[1],30 to 300 nM
same,IC50,[2],300 to 1000 nM
"N[C@H]1CCCO[C@@H]1c1c(Br)c2nc(Cl)nc(NCc3cccs3)c2n1C(F)F [Compound 248, 6-((2S,3S)-3-aminotetrahydro-2H-pyran-2-yl)-7-bromo-2-chloro-5-(difluoromethyl)-N-(thiophen-2-ylmethyl)-5H-pyrrolo[3,2-d]pyrimidin-4-amine]",IC50,[1],30 to 300 nM
same,IC50,[2],30 to 300 nM
"N[C@@H]1CCCO[C@H]1c1sc2c(NCc3ccco3)nc(Cl)nc2c1C#CCO.N[C@H]1CCCO[C@@H]1c1sc2c(NCc3ccco3)nc(Cl)nc2c1C#CCO (mixture of isomers) [Compound 255, 3-(6-((2R,3R)-3-aminotetrahydro-2H-pyran-2-yl)-2-chloro-4-((furan-2-ylmethyl)amino)thieno[3,2-d]pyrimidin-7-yl)prop-2-yn-1-ol and 3-(6-((2S,3S)-3-aminotetrahydro-2H-pyran-2-yl)-2-chloro-4-((furan-2-ylmethyl)amino)thieno[3,2-d]pyrimidin-7-yl)prop-2-yn-1-ol]",IC50,[1],≤ 30 nM
same,IC50,[2],30 to 300 nM
"2-((1R,6R)-6-aminocyclohex-3-en-1-yl)-3-bromo-5-chloro-N-(cyclopent-1-en-1-ylmethyl)thieno[3,2-b]pyridin-7-amine and 2-((1S,6S)-6-aminocyclohex-3-en-1-yl)-3-bromo-5-chloro-N-(cyclopent-1-en-1-ylmethyl)thieno[3,2-b]pyridin-7-amine [Compound 332]",IC50,[1],30 to 300 nM
same,IC50,[2],30 to 300 nM
"CC#Cc1c([C@@H]2CCCC[C@H]2N)n(C(F)F)c2c(NCc3ccco3)nc(Cl)nc12 [Compound 318, 6-((1R,2R)-2-aminocyclohexyl)-2-chloro-5-(difluoromethyl)-N-(furan-2-ylmethyl)-7-(prop-1-yn-1-yl)-5H-pyrrolo[3,2-d]pyrimidin-4-amine]",IC50,[1],30 to 300 nM
same,IC50,[2],30 to 300 nM
"N[C@H]1CC=CC[C@@H]1c1sc2c(NCc3ccco3)cc(Cl)nc2c1Br [Compound 206, 2-((1S,6S)-6-aminocyclohex-3-en-1-yl)-3-bromo-5-chloro-N-(furan-2-ylmethyl)thieno[3,2-b]pyridin-7-amine]",IC50,[1],≤ 30 nM
same,IC50,[2],≤ 30 nM
"N[C@@H]1C[C@@H]2C[C@@H]2C[C@H]1c1sc2c(NCc3cccs3)cc(Cl)nc2c1Br.N[C@H]1C[C@H]2C[C@H]2C[C@@H]1c1sc2c(NCc3cccs3)cc(Cl)nc2c1Br (mixture of isomers) [Compound 290, 2-((1R,3R,4R,6S)-4-aminobicyclo[4.1.0]heptan-3-yl)-3-bromo-5-chloro-N-(thiophen-2-ylmethyl)thieno[3,2-b]pyridin-7-amine and 2-((1S,3S,4S,6R)-4-aminobicyclo[4.1.0]heptan-3-yl)-3-bromo-5-chloro-N-(thiophen-2-ylmethyl)thieno[3,2-b]pyridin-7-amine]",IC50,[1],30 to 300 nM
same,IC50,[2],30 to 300 nM
"N[C@H]1CCCCC[C@@H]1c1sc2c(NCc3cccs3)cc(Cl)nc2c1-c1ccccc1 [Compound 141, 2-((1S,2S)-2-aminocycloheptyl)-5-chloro-3-phenyl-N-(thiophen-2-ylmethyl)thieno[3,2-b]pyridin-7-amine]",IC50,[1],> 1000 nM
same,IC50,[2],> 1000 nM
"6-((3R,4S)-3-aminotetrahydro-2H-pyran-4-yl)-7-bromo-2-chloro-N-(thiophen-2-ylmethyl)thieno[3,2-d]pyrimidin-4-amine and 6-((3S,4R)-3-aminotetrahydro-2H-pyran-4-yl)-7-bromo-2-chloro-N-(thiophen-2-ylmethyl)thieno[3,2-d]pyrimidin-4-amine [Compound 347]",IC50,[1],30 to 300 nM
same,IC50,[2],30 to 300 nM
"Cc1c([C@@H]2CCC[C@H]2N)sc2c(NCc3cccs3)cc(Cl)nc12 [Compound 5, 2-((1R,2R)-2-aminocyclopentyl)-5-chloro-3-methyl-N-(thiophen-2-ylmethyl)thieno[3,2-b]pyridin-7-amine]",IC50,[1],> 1000 nM
same,IC50,[2],> 1000 nM
"2-((1R,2S,6R)-6-amino-2-methylcyclohex-3-en-1-yl)-3-bromo-5-chloro-N-(thiophen-2-ylmethyl)thieno[3,2-b]pyridin-7-amine and 2-((1S,2R,6S)-6-amino-2-methylcyclohex-3-en-1-yl)-3-bromo-5-chloro-N-(thiophen-2-ylmethyl)thieno[3,2-b]pyridin-7-amine [Compound 402]",IC50,[1],≤ 30 nM
same,IC50,[2],≤ 30 nM
